# Patent publication US9073892B2, “Indazolyl triazol derivatives” (Merck Serono S.A., priority 2010, dated 2015)
# Tested on: IL1β-induced IL8 release in THP1 cells
# Experiment: IRAK IL8 secretion functional assay
# Assay type: cell-based
# Details: Homo sapiens; THP-1 cells, IL1β 100 ng/ml overnight, IL8 by HTRF; read-out: IC50, Secretion THP-1/IL-β induced IL8 release
# Excerpt: IRAK IL8 Secretion Functional Assay:
# THP1 cells are human monocytes derived from acute monocytic leukemia. IL1β receptor expressed on the surface membrane of THP1 cells induced IL8 release. IRAKs are kinase signaling downstream of TLRs and TNF, IL-18, IL-33 and IL-1 receptors.
# In cells, IRAK4 is upstream of IRAK1.
# The Human IL8 Kit, provided by CysBio International based in Bagnols/Cèze FR, allows for the quantitative determination of IL-8 in cell-culture supernatants.
# Anti-cytokine IL8 antibodies are respectively labeled with europium Cryptate and XL665. Upon their binding to IL-8 molecules, the two antibodies come into close proximity, allowing FRET (Fluorescence Resonance Energy Transfer) to occur. This FRET increases proportionally to IL-8 concentrations and be converted in IL8 pg amounts.
# THP-1 cells are seeded on Day 1 in 384 well plate with RPMI 1640 at a density of 30 000 cells/well. Compounds 4×/2% DMSO (range of concentrations from 20 μM to 1 nM) and IL1β 4× at 100 ng/ml final are added to cells overnight at 37° C., 5% CO2. Measurement of IL-8 secretion is done by mixing on Day2 10 μl of supernatant with 10 μl of a mix solution of europium Cryptate and XL665 (v:v) as described by supplier.
# HTRF (homogeneous time resolved fluorescence) signal is measured after 3 hours incubation time at 30° C. with a BMG Pherastar reader or equivalent.
row,IC50 [µM],SMILES
1,0.1 to 1,"CCN1CCC[C@@H]1CNC(=O)c1ccc(-n2cc(-c3n[nH]c4ccc(C)cc34)nn2)cc1 [Example 3, N-{[(2R)-1-ethylpyrrolidin-2-yl]methyl}-4-[4-(5-methyl-1H-indazol-3-yl)-1H-1,2,3-triazol-1-yl]benzamide]"
2,0.1 to 1,"CCN1CCC[C@H]1CNC(=O)c1ccc(-n2cc(-c3n[nH]c4ccc(C)cc34)nn2)cc1 [Example 4, N-{[(2S)-1-ethylpyrrolidin-2-yl]methyl}-4-[4-(5-methyl-1H-indazol-3-yl)-1H-1,2,3-triazol-1-yl]benzamide]"
3,0.1 to 1,"Cc1ccc2[nH]nc(-c3cn(-c4ccc(CN5CCCC5)cc4)nn3)c2c1 [Example 6, 5-methyl-3-{1-[4-(pyrrolidin-1-ylmethyl)phenyl]-1H-1,2,3-triazol-4-yl}-1H-indazole]"
4,0.1 to 1,"CNCc1ccc(-n2cc(-c3n[nH]c4ccc(C)cc34)nn2)cc1 [Example 8, N-methyl-1-{4-[4-(5-methyl-1H-indazol-3-yl)-1H-1,2,3-triazol-1-yl]phenyl}methanamine]"
5,0.1 to 1,"Cc1ccc2[nH]nc(-c3cn(-c4ccc(CN5CCN(C)CC5)cc4)nn3)c2c1 [Example 9, 5-methyl-3-(1-{4-[(4-methylpiperazin-1-yl)methyl]phenyl}-1H-1,2,3-triazol-4-yl)-1H-indazole]"

# Tested on: T1, IRAK1/4 human
# T1 construct: fused on or other part: His tag and TEV cleavage site at the N-terminus
# Experiment: IRAK1/4 phosphorylation IC50 (enzymatic assay, table 2)
# Assay type: biochemical
# Details: human IRAK1/4 phosphorylation
# In short: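 His-TEV-tagged human IRAK-1 or IRAK-4 (IRAK-4 with STK1-biotin peptide) was incubated in 384-well plates with ATP and compounds in DMSO from 20 µM to 1 nM, with 2% DMSO controls. The buffer was Hepes pH7.0 50 mM with MgCl2, DTT, EGTA and BSA, and reactions ran 2 or 3 hours. Inhibition was reported as IC50.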
row,IC50 [µM],SMILES
1,0.1 to 1,"CCN1CCC[C@@H]1CNC(=O)c1ccc(-n2cc(-c3n[nH]c4ccc(C)cc34)nn2)cc1 [Example 3, N-{[(2R)-1-ethylpyrrolidin-2-yl]methyl}-4-[4-(5-methyl-1H-indazol-3-yl)-1H-1,2,3-triazol-1-yl]benzamide]"
2,0.1 to 1,"CCN1CCC[C@H]1CNC(=O)c1ccc(-n2cc(-c3n[nH]c4ccc(C)cc34)nn2)cc1 [Example 4, N-{[(2S)-1-ethylpyrrolidin-2-yl]methyl}-4-[4-(5-methyl-1H-indazol-3-yl)-1H-1,2,3-triazol-1-yl]benzamide]"
3,0.1 to 1,"Cc1ccc2[nH]nc(-c3cn(-c4ccc(CN5CCCC5)cc4)nn3)c2c1 [Example 6, 5-methyl-3-{1-[4-(pyrrolidin-1-ylmethyl)phenyl]-1H-1,2,3-triazol-4-yl}-1H-indazole]"
4,0.1 to 1,"CNCc1ccc(-n2cc(-c3n[nH]c4ccc(C)cc34)nn2)cc1 [Example 8, N-methyl-1-{4-[4-(5-methyl-1H-indazol-3-yl)-1H-1,2,3-triazol-1-yl]phenyl}methanamine]"
5,1 to 5,"Cc1ccc2[nH]nc(-c3cn(-c4ccc(CN5CCN(C)CC5)cc4)nn3)c2c1 [Example 9, 5-methyl-3-(1-{4-[(4-methylpiperazin-1-yl)methyl]phenyl}-1H-1,2,3-triazol-4-yl)-1H-indazole]"
6,0.1 to 1,O=C(c1ccc(-n2cc(-c3n[nH]c4ccc(N5CCCC(F)(F)C5)cc34)nn2)cc1)N1CCOCC1 [Example 242]
7,0.1 to 1,O=S(=O)(c1ccc(-n2cc(-c3n[nH]c4ccccc34)nn2)cc1)N1CCOCC1 [Example 243]
8,0.1 to 1,O=C(c1ccc(-n2cc(-c3n[nH]c4cc(NCCO)ccc34)nn2)cc1)N1CCOCC1 [Example 244]
9,0.1 to 1,CC(CO)Nc1ccc2c(-c3cn(-c4ccc(C(=O)N5CCOCC5)cc4)nn3)n[nH]c2c1 (stereo not shown) [Example 245]
10,0.1 to 1,c1ccc2c(-c3cn(-c4ccc(N5CCNCC5)cc4)nn3)n[nH]c2c1 [Example 246]
11,0.1 to 1,c1ccc2c(-c3cn(-c4ccc(CN5CCCCC5)cc4)nn3)n[nH]c2c1 [Example 247]
12,0.1 to 1,O=C(c1ccc(-n2cc(-c3n[nH]c4ccc(NCC5CCOCC5)cc34)nn2)cc1)N1CCOCC1 [Example 248]
13,0.1 to 1,O=C(c1ccc(-n2cc(-c3n[nH]c4ccc(N5CCN6CCCC6C5)cc34)nn2)cc1)N1CCOCC1 (stereo not shown) [Example 250]
14,< 0.1,c1ccc2c(-c3cn(-c4ccc(C5CCCNC5)cc4)nn3)n[nH]c2c1 (stereo not shown) [Example 252]
15,0.1 to 1,O=C(c1ccc(-n2cc(-c3n[nH]c4ccc(N5CCCC(O)C5)cc34)nn2)cc1)N1CCOCC1 (stereo not shown) [Example 254]
16,< 0.1,O=C(c1ccc(-n2cc(-c3n[nH]c4ccc(NC5CCCNC5)cc34)nn2)cc1)N1CCOCC1 (stereo not shown) [Example 257]
17,0.1 to 1,Nc1ccc(-c2ccc(-n3cc(-c4n[nH]c5ccccc45)nn3)cc2)cn1 [Example 258]
18,0.1 to 1,O=S1(=O)CCN(Cc2ccc(-n3cc(-c4n[nH]c5ccccc45)nn3)cc2)CC1 [Example 259]
19,0.1 to 1,Cc1cc(-c2ccc(-n3cc(-c4n[nH]c5ccccc45)nn3)cc2)ccn1 [Example 260]
20,0.1 to 1,Cn1cc(-c2ccc(-n3cc(-c4n[nH]c5ccccc45)nn3)cc2)cn1 [Example 261]
21,0.1 to 1,c1ccc2c(-c3cn(-c4ccc(-c5cnn(CCN6CCOCC6)c5)cc4)nn3)n[nH]c2c1 [Example 262]
22,0.1 to 1,FC(F)(F)c1cc(-n2cc(-c3n[nH]c4ccccc34)nn2)ccc1C1CCNCC1 [Example 263]
23,0.1 to 1,O=C(c1ccc(-n2cc(-c3n[nH]c4ccc(N5CCOC(CCO)C5)cc34)nn2)cc1)N1CCOCC1 (stereo not shown) [Example 264]
24,< 0.1,Cc1ccc2c(-c3cn(-c4ccc(C5CCNCC5)cc4)nn3)n[nH]c2c1 [Example 265]
25,< 0.1,Fc1ccc2c(-c3cn(-c4ccc(C5CCNCC5)cc4)nn3)n[nH]c2c1 [Example 266]

row,IC50 [µM],SMILES
1,0.1 to 1,CN1CCC(c2ccc(-n3cc(-c4n[nH]c5ccccc45)nn3)cc2C(F)(F)F)CC1 [Example 267]
2,< 0.1,COc1cc(-n2cc(-c3n[nH]c4ccccc34)nn2)ccc1C1CCNCC1 [Example 268]
3,< 0.1,c1ccc2c(-c3cn(-c4ccc(C5CCCNCC5)cc4)nn3)n[nH]c2c1 (stereo not shown) [Example 269]
4,1 to 5,Cc1ccc2c(-c3cn(-c4ccc(C5CCN(CCC(F)(F)F)CC5)cc4)nn3)n[nH]c2c1 [Example 270]
5,0.1 to 1,OC(CN1CCC(c2ccc(-n3cc(-c4n[nH]c5cc(F)ccc45)nn3)cc2)CC1)C(F)(F)F (stereo not shown) [Example 271]
6,< 0.1,CC1(C)CNCCC1c1ccc(-n2cc(-c3n[nH]c4cc(F)ccc34)nn2)cc1 (stereo not shown) [Example 275]
7,0.1 to 1,O=C1C[C@@H](OCc2ccc3[nH]nc(-c4cn(-c5ccc(C(=O)N6CCOCC6)cc5)nn4)c3c2)CO1 [Example 276]
8,< 0.1,CC1(C)CNCCC1c1ccc(-n2cc(-c3n[nH]c4ccccc34)nn2)cc1 (stereo not shown) [Example 277]
9,0.1 to 1,Cc1ccc2c(-c3cn(-c4ccc(CN5CCOC(C)(C)C5)cc4)nn3)n[nH]c2c1 [Example 279]
10,1 to 5,Fc1ccc2c(-c3cn(-c4ccc(CN5CC6CCC(C5)O6)cc4)nn3)n[nH]c2c1 [Example 282]
11,1 to 5,CC1(C)CN(Cc2ccc(-n3cc(-c4n[nH]c5cc(F)ccc45)nn3)cc2)CCO1 [Example 283]
12,1 to 5,c1ccc2c(-c3cn(-c4ccc(CN5CC6CCC(C5)O6)cc4)nn3)n[nH]c2c1 [Example 284]
13,0.1 to 1,Fc1ccc2c(-c3cn(-c4ccc(CN5CCCCC56COC6)cc4)nn3)n[nH]c2c1 [Example 285]
14,0.1 to 1,Cc1ccc2c(-c3cn(-c4ccc(CN5CCCCC56COC6)cc4)nn3)n[nH]c2c1 [Example 287]
15,0.1 to 1,Cc1nn(C)cc1-c1ccc(-n2cc(-c3n[nH]c4ccccc34)nn2)cc1 [Example 289]
16,0.1 to 1,Cc1cnccc1-c1ccc(-n2cc(-c3n[nH]c4ccccc34)nn2)cc1 [Example 290]
17,0.1 to 1,CC(=O)Nc1ccc(-c2ccc(-n3cc(-c4n[nH]c5ccccc45)nn3)cc2)cn1 [Example 291]
18,0.1 to 1,O=C(c1ccc(-n2cc(-c3n[nH]c4ccc(CN5CC(O)C5)cc34)nn2)cc1)N1CCOCC1 [Example 292]
19,0.1 to 1,Cc1ccc2c(-c3cn(-c4ccc(CN5CC6CCC(C5)O6)cc4)nn3)n[nH]c2c1 [Example 293]
20,0.1 to 1,c1ccc2c(-c3cn(-c4ccc(-c5cnn(C6CCNCC6)c5)cc4)nn3)n[nH]c2c1 [Example 294]
21,0.1 to 1,O=C(c1ccc(-n2cc(-c3n[nH]c4ccc(CNCc5cccc(O)c5)cc34)nn2)cc1)N1CCOCC1 [Example 295]
22,0.1 to 1,O=C(c1ccc(-n2cc(-c3n[nH]c4cc(C(F)(F)F)ccc34)nn2)cc1)N1CCOCC1 [Example 296]
23,1 to 5,FC(F)(F)c1ccc2c(-c3cn(-c4ccc(CN5CCOCC5)cc4)nn3)n[nH]c2c1 [Example 297]
24,0.1 to 1,FC(F)(F)c1ccc2c(-c3cn(-c4ccc(C5CCNCC5)cc4)nn3)n[nH]c2c1 [Example 299]

row,SMILES,IC50 [µM]
1,c1ccc2c(-c3cn(-c4ccc(C5CC6CCC(C5)N6C5COC5)cc4)nn3)n[nH]c2c1 (stereo not shown) [Example 249],0.1 to 1
2,CN1[C@@H]2CC[C@H]1C[C@@H](c1ccc(-n3cc(-c4n[nH]c5cc(F)ccc45)nn3)cc1)C2 [Example 253],< 0.1
3,c1ccc2c(-c3cn(-c4ccc([C@@H]5C[C@H]6CC[C@@H](C5)N6)cc4)nn3)n[nH]c2c1 [Example 255],< 0.1
4,c1ccc2c(-c3cn(-c4ccc([C@H]5C[C@H]6CC[C@@H](C5)N6)cc4)nn3)n[nH]c2c1 [Example 256],< 0.1
5,CN1[C@@H]2CCC[C@H]1C[C@H](c1ccc(-n3cc(-c4n[nH]c5cc(F)ccc45)nn3)cc1)C2 [Example 272],< 0.1
6,CN1[C@@H]2CCC[C@H]1C[C@H](c1ccc(-n3cc(-c4n[nH]c5ccccc45)nn3)cc1)C2 [Example 273],< 0.1
7,Cc1ccc2c(-c3cn(-c4ccc([C@@H]5C[C@H]6CCC[C@@H](C5)N6C)cc4)nn3)n[nH]c2c1 [Example 274],< 0.1
8,CN1C2CCC1CC(n1cc(-n3cc(-c4n[nH]c5ccc(-c6cnn(C)c6)cc45)nn3)cn1)C2 (stereo not shown) [Example 278],< 0.1
9,OC(CN1[C@@H]2CC[C@H]1C[C@@H](c1ccc(-n3cc(-c4n[nH]c5ccccc45)nn3)cc1)C2)C(F)(F)F (stereo partly shown) [Example 280],0.1 to 1
10,OC(CN1[C@@H]2CC[C@H]1C[C@H](c1ccc(-n3cc(-c4n[nH]c5ccccc45)nn3)cc1)C2)C(F)(F)F (stereo partly shown) [Example 281],0.1 to 1
